# Structures can show the parent of a compound that is named as a salt. Where two headings read alike, the source gives them in different places.
# What was measured:
# 5-HT2A receptor = biological target: T1, 5-HT2A receptor (Homo sapiens, UniProt P28223); assay: R-SAT functional receptor assay; type: cell-based
# T1 construct: expressed in transfected cells; host or cells: NIH3T3 cells, pSI expression vector
# 5HT1A [1] = biological target: T2, 5HT1A (Rattus norvegicus, UniProt P19327); assay: R-SAT selectivity profile; type: cell-based; settings: antagonist
# T2 construct: expressed in transfected cells
# T2 sequence (P19327 whole entry): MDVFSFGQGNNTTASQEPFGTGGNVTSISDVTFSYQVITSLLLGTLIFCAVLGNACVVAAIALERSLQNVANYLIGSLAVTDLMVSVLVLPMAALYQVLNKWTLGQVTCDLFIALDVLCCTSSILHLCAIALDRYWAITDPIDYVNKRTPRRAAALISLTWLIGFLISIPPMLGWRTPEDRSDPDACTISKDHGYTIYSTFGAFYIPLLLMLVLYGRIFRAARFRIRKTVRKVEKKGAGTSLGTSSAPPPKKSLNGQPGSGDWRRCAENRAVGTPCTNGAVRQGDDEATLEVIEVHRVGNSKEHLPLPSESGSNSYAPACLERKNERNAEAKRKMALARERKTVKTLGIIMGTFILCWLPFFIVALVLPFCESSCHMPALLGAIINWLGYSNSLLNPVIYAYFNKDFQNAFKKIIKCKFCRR
# Protocol: (§1) The functional receptor assay, Receptor Selection and Amplification Technology (R-SAT), was used (with minor modifications from that previously described U.S. Pat. No. 5,707,798) to screen compounds for efficacy at the 5-HT2A receptor. Briefly, NIH3T3 cells were grown in 96 well tissue culture plates to 70-80% confluence. Cells were transfected for 12-16 hours with plasmid DNAs using superfect (Qiagen Inc.) as per manufacture's protocols. R-SAT's were generally performed with 50 ng/well of receptor and 20 ng/well of Beta-galactosidase plasmid DNA. All receptor and G-protein constructs used were in the pSI mammalian expression vector (Promega Inc) as described in U.S. Pat. No. 5,707,798. The 5HT2A receptor gene was amplified by nested PCR from brain cDNA using the oligodeoxynucleotides based on the published sequence (see Saltzman et. al. Biochem. Biophys. Res. Comm. 181:1469-78 (1991)). Large-scale transfections, cells were transfected for 12-16 hours, then trypsinized and frozen in DMSO. Frozen cells were later thawed, plated at 10,000-40,000 cells per well of a 96 well plate that contained drug. With both methods, cells were then grown in a humidified atmosphere with 5% ambient CO2 for five days. Media was then removed from the plates and marker gene activity was measured by the addition of the beta-galactosidase substrate ONPG (in PBS with 5% NP-40). The resulting colorimetric reaction was measured in a spectrophotometric plate reader (Titertek Inc.)at […]. All data were analyzed using the computer program XLFit (IDBSm). Efficacy is the percent maximal repression compared to repression by a control compound (ritanserin in the case of 5HT2A). pIC50 is the negative of the log(IC50), where IC50 is the calculated concentration in Molar that produces 50% maximal repression.
# (§2) R-SAT assays (as described in Example 42) were carried out with cells transfected with receptors (listed below) to determine the receptor selectivity profile for compound 26HCH16D. 5HT2A inverse agonist data (IC50 nM; % efficacy) were derived from detailed dose response curves (7 points in triplicate).
# alpha1a/D = biological target: T3, alpha1a/D (Rattus norvegicus, UniProt P23944); assay: R-SAT selectivity profile; type: cell-based
# T3 construct: expressed in transfected cells
# T3 sequence (P23944 whole entry): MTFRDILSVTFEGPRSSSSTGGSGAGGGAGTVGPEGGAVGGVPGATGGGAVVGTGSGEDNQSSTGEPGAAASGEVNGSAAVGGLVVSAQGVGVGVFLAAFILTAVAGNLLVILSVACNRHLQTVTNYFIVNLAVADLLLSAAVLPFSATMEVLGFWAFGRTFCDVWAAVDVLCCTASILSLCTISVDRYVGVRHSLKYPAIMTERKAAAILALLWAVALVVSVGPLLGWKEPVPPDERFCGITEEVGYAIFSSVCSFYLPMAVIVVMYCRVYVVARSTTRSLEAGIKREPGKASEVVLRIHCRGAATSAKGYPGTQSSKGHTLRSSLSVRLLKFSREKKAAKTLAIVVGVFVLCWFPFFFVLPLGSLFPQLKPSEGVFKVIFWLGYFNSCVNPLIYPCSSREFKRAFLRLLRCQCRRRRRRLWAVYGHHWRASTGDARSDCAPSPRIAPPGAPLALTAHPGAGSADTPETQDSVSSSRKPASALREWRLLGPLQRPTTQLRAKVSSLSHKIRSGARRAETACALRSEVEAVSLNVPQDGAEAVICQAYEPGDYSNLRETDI
# Protocol: as §1, §2
# alpha1c/A = biological target: T4, alpha1c/A (Homo sapiens, UniProt P35348); assay: R-SAT selectivity profile; type: cell-based
# T4 construct: expressed in transfected cells
# T4 sequence (P35348 1-466): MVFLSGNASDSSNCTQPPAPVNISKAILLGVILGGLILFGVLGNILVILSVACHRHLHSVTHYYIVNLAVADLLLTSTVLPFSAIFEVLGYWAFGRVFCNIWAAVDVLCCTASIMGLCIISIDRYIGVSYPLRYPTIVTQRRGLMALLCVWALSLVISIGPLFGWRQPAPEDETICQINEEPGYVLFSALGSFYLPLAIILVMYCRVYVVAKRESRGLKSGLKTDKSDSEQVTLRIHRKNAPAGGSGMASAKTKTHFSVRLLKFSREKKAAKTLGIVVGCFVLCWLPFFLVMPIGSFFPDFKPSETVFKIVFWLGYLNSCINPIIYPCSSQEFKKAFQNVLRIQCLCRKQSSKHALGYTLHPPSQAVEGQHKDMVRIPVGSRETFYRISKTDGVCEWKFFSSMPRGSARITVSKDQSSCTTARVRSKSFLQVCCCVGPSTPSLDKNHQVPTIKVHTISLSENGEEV
# Protocol: as §1, §2
# alpha1b/B = biological target: T5, alpha1b/B (Mesocricetus auratus, UniProt P18841); assay: R-SAT selectivity profile; type: cell-based, hamster
# T5 construct: expressed in transfected cells
# T5 sequence (P18841 whole entry): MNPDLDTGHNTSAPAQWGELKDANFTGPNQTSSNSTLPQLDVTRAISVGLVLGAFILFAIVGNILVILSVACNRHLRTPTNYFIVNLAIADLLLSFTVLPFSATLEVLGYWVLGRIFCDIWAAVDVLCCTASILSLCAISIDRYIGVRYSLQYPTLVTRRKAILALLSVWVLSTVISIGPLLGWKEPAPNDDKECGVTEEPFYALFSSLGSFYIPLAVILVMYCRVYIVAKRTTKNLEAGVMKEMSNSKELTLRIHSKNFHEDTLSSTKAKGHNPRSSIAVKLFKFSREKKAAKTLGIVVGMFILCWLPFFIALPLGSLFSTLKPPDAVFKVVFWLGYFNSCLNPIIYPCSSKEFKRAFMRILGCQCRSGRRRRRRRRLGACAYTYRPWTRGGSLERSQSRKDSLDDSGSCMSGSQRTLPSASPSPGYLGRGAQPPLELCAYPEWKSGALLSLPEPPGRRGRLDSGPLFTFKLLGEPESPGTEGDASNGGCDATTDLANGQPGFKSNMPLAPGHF
# Protocol: as §1, with “Frozen cells were later thawed, plated at 10,000-40,000 cells per well of a 96 well plate that contained drug. With both methods, cells were then grown in a humidified atmosphere with 5% ambient CO2 for five days.” left out, “Efficacy is the percent maximal repression compared to repression by a control compound (ritanserin in the case of 5HT2A). pIC50 is the negative of the log(IC50), where IC50 is the calculated concentration in Molar that produces 50% maximal repression.” left out
# 5HT1A [2] = biological target: T6, 5HT1A (Homo sapiens, UniProt P08908); assay: R-SAT selectivity profile; type: cell-based; design: expressed in transfected cells; settings: agonist
# T6 sequence (P08908 1-422): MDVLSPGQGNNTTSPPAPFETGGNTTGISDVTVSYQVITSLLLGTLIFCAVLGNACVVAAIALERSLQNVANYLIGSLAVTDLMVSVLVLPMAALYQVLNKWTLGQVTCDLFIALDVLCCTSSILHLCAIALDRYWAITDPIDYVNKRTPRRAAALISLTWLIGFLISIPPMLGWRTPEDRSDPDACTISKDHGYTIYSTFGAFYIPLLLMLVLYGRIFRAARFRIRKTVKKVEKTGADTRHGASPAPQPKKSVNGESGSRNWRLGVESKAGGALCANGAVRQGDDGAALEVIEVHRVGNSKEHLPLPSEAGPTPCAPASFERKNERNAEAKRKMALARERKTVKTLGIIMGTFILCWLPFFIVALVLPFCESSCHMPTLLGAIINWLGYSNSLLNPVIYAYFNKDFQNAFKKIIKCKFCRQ
# Protocol: as §1, §2
# 5HT1E = 5HT1E (Homo sapiens, UniProt P28566); assay: R-SAT selectivity profile; type: cell-based; design: expressed in transfected cells; settings: agonist
# Sequence of 5HT1E (P28566 whole entry): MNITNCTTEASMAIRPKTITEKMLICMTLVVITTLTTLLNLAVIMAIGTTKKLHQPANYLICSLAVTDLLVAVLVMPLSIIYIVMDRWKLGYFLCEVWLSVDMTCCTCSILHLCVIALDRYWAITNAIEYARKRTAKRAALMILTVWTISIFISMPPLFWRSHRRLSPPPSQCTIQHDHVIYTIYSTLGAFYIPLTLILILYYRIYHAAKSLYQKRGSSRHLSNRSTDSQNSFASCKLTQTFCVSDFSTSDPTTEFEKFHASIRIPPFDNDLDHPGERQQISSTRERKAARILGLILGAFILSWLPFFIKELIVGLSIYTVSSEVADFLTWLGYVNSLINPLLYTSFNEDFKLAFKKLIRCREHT
# Protocol: as §1, §2
# 5HT2B = 5HT2B (Homo sapiens, UniProt P41595); assay: R-SAT selectivity profile; type: cell-based; design: expressed in transfected cells
# Sequence of 5HT2B (P41595 whole entry): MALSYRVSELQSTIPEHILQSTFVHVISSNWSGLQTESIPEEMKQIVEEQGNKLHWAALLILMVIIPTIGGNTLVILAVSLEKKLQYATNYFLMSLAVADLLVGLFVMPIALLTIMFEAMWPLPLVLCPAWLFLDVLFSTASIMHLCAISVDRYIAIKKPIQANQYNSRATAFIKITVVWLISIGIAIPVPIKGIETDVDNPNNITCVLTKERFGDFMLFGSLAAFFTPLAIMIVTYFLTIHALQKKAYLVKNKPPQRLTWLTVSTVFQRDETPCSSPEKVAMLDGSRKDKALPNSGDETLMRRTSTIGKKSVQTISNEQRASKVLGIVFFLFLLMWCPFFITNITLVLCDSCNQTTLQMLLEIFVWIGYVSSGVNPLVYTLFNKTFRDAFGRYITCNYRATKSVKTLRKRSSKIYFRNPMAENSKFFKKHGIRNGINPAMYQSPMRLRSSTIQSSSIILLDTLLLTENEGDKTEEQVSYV
# Protocol: as §1, §2
# 5HT2C = biological target: T7, 5HT2C (Homo sapiens, UniProt P28335); assay: R-SAT selectivity profile; type: cell-based; design: expressed in transfected cells
# T7 sequence (P28335 33-458): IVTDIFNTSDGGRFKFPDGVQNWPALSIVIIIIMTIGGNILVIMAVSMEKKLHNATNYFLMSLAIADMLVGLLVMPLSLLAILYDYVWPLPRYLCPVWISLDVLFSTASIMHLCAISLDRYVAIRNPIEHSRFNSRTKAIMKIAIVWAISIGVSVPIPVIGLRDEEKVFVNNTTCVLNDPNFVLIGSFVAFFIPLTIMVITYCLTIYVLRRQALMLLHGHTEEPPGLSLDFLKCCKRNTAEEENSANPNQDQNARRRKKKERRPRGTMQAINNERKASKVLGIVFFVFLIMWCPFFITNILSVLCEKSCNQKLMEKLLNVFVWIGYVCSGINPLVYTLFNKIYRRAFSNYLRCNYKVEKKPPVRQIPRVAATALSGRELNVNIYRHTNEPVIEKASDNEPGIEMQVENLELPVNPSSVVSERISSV
# Protocol: as §1, §2
# D2 = D2 (Homo sapiens, UniProt P14416); assay: R-SAT selectivity profile; type: cell-based; design: expressed in transfected cells
# Sequence of D2 (P14416 whole entry): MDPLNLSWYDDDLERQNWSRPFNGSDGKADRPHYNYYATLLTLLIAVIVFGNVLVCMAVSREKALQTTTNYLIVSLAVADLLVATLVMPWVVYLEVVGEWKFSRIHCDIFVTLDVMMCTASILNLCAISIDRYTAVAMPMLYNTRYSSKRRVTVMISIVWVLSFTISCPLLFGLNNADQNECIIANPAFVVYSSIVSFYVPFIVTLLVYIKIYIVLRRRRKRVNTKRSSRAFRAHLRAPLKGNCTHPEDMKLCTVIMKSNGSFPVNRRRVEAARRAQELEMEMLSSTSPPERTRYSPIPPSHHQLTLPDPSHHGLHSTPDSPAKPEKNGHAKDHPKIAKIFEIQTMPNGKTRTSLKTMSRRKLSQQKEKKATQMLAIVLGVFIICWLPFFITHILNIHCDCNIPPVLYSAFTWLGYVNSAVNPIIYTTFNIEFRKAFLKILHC
# Protocol: as §1, §2
# H1 = H1 (Homo sapiens, UniProt P35367); assay: R-SAT selectivity profile; type: cell-based; design: expressed in transfected cells
# Sequence of H1 (P35367 whole entry): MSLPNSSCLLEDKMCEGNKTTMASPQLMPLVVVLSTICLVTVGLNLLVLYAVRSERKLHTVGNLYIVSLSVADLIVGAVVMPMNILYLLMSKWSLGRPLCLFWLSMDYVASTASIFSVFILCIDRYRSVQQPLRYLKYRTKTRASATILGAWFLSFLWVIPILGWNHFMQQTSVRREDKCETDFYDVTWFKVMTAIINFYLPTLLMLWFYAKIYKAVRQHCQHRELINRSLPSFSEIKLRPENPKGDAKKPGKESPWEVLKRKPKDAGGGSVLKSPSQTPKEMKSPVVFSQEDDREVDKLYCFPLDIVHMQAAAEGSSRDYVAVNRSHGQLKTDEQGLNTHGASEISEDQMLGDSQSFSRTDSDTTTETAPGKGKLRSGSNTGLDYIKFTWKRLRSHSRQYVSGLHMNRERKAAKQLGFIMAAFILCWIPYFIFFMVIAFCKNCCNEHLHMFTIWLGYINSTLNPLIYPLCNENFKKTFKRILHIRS
# Protocol: as §1, §2
# Male NSA mice = assay: In vivo determination of behavioral effects (motor activity, MK-801 hyperactivity); settings: p.o.; minimum effective dose vs vehicle control
# Protocol: Male NSA mice (Harlan; San Deigo, Calif.) were used as subjects. Mice weighed 20-30 g. Animals were housed 8/cage in the One Cage system (One Cage; Lab Products, Inc., Seaford, Del.) with bedding (⅛ inch Bed “O” Cob; Harlan Teklad, Madison, Wis.) in a room with controlled temperature 22±3° C. and a 12 hour light:dark cycle (lights on 6 am). Water and standard rodent chow (Harlan Teklad) were continuously available in the home cage. For testing, plastic locomotor activity cages (20×20×30 cm; AccuScan Instruments, Columbus, Ohio) were equipped with photocell beams for monitoring horizontal activity. Data were collected using Versamax computer software (AccuScan Instruments). For determination of spontaneous activity, test compounds were administered alone (s.c. 10 min or p.o. 30 min before the session). For hyperactivity experiments, mice were injected with 0.3 mg/kg MK-8011.p. 15 min precession (the peak dose for producing hyperactivity in an inverted-U dose-effect curve as determined in pilot experiments) in combination with vehicle or test compound. Motor activity data were collected during a 15 min session in a lit room. Mice had no prior exposure to the motor cages. Each dose or dose combination was tested in a separate group of mice (n=8). Distance traveled (cm) was calculated and averaged across animals in a group. […]
# T1 sequence (P28223 whole entry): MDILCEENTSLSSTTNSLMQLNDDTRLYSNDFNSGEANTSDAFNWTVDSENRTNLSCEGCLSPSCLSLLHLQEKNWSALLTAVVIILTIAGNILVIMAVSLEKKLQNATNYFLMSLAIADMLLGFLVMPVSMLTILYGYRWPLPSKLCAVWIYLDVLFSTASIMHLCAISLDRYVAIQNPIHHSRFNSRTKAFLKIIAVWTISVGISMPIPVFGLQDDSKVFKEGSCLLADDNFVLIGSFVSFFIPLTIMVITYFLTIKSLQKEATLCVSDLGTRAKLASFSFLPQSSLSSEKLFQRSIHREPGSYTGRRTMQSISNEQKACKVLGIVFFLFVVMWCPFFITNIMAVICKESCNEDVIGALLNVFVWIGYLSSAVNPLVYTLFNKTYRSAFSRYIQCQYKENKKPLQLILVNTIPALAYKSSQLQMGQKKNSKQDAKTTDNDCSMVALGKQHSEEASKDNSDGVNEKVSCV
smiles,measurement,setting,value
"Cc1ccc(CN(C(=O)NCc2ccccc2)C2CCN(Cc3ccccc3)CC2)cc1 [Example 26HCH16D, N-((4-Methylphenyl)methyl)-N-(1-(phenylmethyl)piperidin-4-yl)-N′-phenylmethylcarbamide hydrochloride]",IC50,"5-HT2A receptor; IC50, Inverse Agonist, 7 points in triplicate",0.9 nM
same,selectivity as 5-HT2A inverse agonist,5-HT2A receptor; in words,highly selective
same,Emax,5-HT2A receptor; read-out: % efficacy,79%
same,Efficacy,5HT1A [1],"nr (nr=activity less than 30% at all doses tested (3, 30, 300, 3000 nM), therefore EC50/IC50 greater than 3000 nM)"
same,Efficacy,alpha1a/D; agonist,"nr (nr=activity less than 30% at all doses tested (3, 30, 300, 3000 nM), therefore EC50/IC50 greater than 3000 nM)"
same,Efficacy,alpha1a/D; antagonist,"nr (nr=activity less than 30% at all doses tested (3, 30, 300, 3000 nM), therefore EC50/IC50 greater than 3000 nM)"
same,initial concentration at which at least 30% efficacy observed,"alpha1c/A; Antagonist, 4 dose profiling",3000 nM
same,Efficacy,alpha1c/A; agonist,"nr (nr=activity less than 30% at all doses tested (3, 30, 300, 3000 nM), therefore EC50/IC50 greater than 3000 nM)"
same,actual efficacy figure,alpha1c/A; antagonist,46%
same,Efficacy,alpha1b/B; agonist,"nr (nr=activity less than 30% at all doses tested (3, 30, 300, 3000 nM), therefore EC50/IC50 greater than 3000 nM)"
same,Efficacy,alpha1b/B; antagonist,"nr (nr=activity less than 30% at all doses tested (3, 30, 300, 3000 nM), therefore EC50/IC50 greater than 3000 nM)"
same,Efficacy,5HT1A [2],"nr (nr=activity less than 30% at all doses tested (3, 30, 300, 3000 nM), therefore EC50/IC50 greater than 3000 nM)"
same,Efficacy,5HT1E,"nr (nr=activity less than 30% at all doses tested (3, 30, 300, 3000 nM), therefore EC50/IC50 greater than 3000 nM)"
same,initial concentration at which at least 30% efficacy observed,"5HT2B; Antagonist, 4 dose profiling",3000 nM
same,actual efficacy figure,5HT2B; antagonist,60%
same,initial concentration at which at least 30% efficacy observed,"5HT2C; Inverse Agonist, 4 dose profiling",3000 nM
same,actual efficacy figure,5HT2C; inverse agonist,79%
same,actual efficacy figure,D2,73%
same,initial concentration at which at least 30% efficacy observed,"D2; Antagonist, 4 dose profiling",3000 nM
same,Efficacy,D2; agonist,"nr (nr=activity less than 30% at all doses tested (3, 30, 300, 3000 nM), therefore EC50/IC50 greater than 3000 nM)"
same,initial concentration at which at least 30% efficacy observed,"H1; Antagonist, 4 dose profiling",3000 nM
same,Efficacy,H1; agonist,"nr (nr=activity less than 30% at all doses tested (3, 30, 300, 3000 nM), therefore EC50/IC50 greater than 3000 nM)"
same,actual efficacy figure,H1; antagonist,30%
"CC(C)COc1ccc(CC(=O)N(Cc2ccc(F)cc2)C2CCN(CCCN3C(=O)OC[C@@H]3C(C)C)CC2)cc1.O=C(O)C(=O)O [Example 117NLS01, N-(4-Fluorobenzyl)-2-(4-isobutoxyphenyl)-N-{1-[3-(4-(S)-isopropyl-2-oxo-oxazolidin-3-yl)propyl]piperidin-4-yl}acetamide, oxalate]",Emax,"5-HT2A receptor; 120 h, read-out: 5HT2A % INH",104%
same,IC50,"5-HT2A receptor; Table 5, read-out: 5HT2A pIC50 (converted)",0.2 nM
same,MED in vivo po,Male NSA mice,1 mg/kg

# — US20080051429A1, “USE OF 4-AMINO-PIPERIDINES FOR TREATING SLEEP DISORDERS” (priority 2006, published 2008)
